Patent US7399475B1, “Inactivated microorganisms comprising substances having pharmacological activity” (Toner Enterprise Inc., priority 1999, dated 2008)

Experiments:
[1] = Quantity of active agent incorporated in the yeast cells, released by hypertonic (osmotic) treatment and determined by HPLC; assay type: physicochemical, Saccharomyces cerevisiae; settings: batch not stated, column unlabelled
Procedure: The suspensions obtained as described above were tested in order to check the quantity of ascorbic acid that had accumulated in the cells.
Step IV)—The suspension obtained in Step III) was centrifuged at 4000 r.p.m. (1252 R.C.F.). The precipitated was washed twice (sample A) or thrice (sample B) with an isotonic solution of sodium chloride (0.9%) keeping it in suspension during each washing.
Step V)—The centrifugate was brought up to 80 g with the hypertonic solution (NaCl 2.0M) used for Step I). In order to complete the osmotic treatment, the suspension was kept under gentle stirring for 6 hours at 25° C.
Step VI)—The ascorbic acid present in each solution (mg/ml) and in the microorganism (mg/g) was determined by HPLC, by the use of the following formula: mg/g=Ac×Ps×fs×Ds×1000/As×Pc×Dc,
The suspension obtained as described above was tested in order to check the quantity of oxytetracycline that had accumulated in the cells.
Step IV)—The suspension obtained in Step II) was centrifuged at 4000 r.p.m. (1252 R.C.F.). The centrifugate was washed twice (A) or thrice (B) with an isotonic solution of sodium chloride (0.9%) keeping it in suspension for 10 minutes before centrifugation.
Step VI)—The oxytetracycline HCl present in each solution (mg/ml) and in the microorganism (mg/g) was determined by HPLC, by the use of the following formula: mg/g=Ac×Ps×fs×Ds×1000/As×Pc×Dc,
The suspension obtained as described above was tested in order to check the quantity of sodium sulphadimethoxine that had accumulated in the cells.
Step VI)—The sodium sulphadimethoxine present in each (mg/ml) and in the microorganism (mg/g) was determined by HPLC, by the use of the following formula: mg/g=Ac×Ps×fs×Ds×1000/As×Pc×Dc,
The suspension as previously obtained was tested to ascertain the quantity of sodium sulphadimethoxin that had accumulated in the cells.
Step IV)—For analytical reasons, the suspension obtained in Step III) was diluted with an isotonic solution of sodium sulphadimethoxin (5.17%) to 200 g. An aliquot of 80 g of suspension was taken. The suspension was centrifuged at 10 000 r.p.m., and the centrifugate was washed twice (A) or thrice (B) with an isotonic solution of sodium chloride (0.9%). The suspension was stirred for 10 minutes before each washing.
Step VI)—The sodium sulphadimethoxin present in solution (mg/ml) and in the microorganism (mg/g) was determined by HPLC, by the use of the following formula: mg/g=Ac×Ps×fs×Ds×1000/As×Pc×Dc,
The suspension obtained as described above was tested in order to check the quantity of ascorbic acid that had been loaded in the cells. […]
Step VI)—The ascorbic acid present in the washing solution (mg/ml) and in the microorganism (mg/g) was determined by HPLC, by the use of the following formula: mg/g=Ac×Ps×fs×Ds×1000/As×Pc×Dc, […]

[2] = known from the literature; cited from earlier work
[3] = Incorporated vitamins determined by HPLC after 5N HCl or NaOH 0.05N extraction of dried yeast; assay type: physicochemical, Saccharomyces cerevisiae; settings: Example 10, content in dried loaded yeast; for Incorporated vitamins (HCl extraction), Content: 5N HCl extraction; for Incorporated vitamins (NaOH extraction), Content: NaOH 0.05N extraction
Procedure: In this treatment yeast cells have been partially emptied by the hypertonic solution, comprising NaCl and Trisodium citrate bihydrate, as already described. Vitamins were then incorporated by incubation in a vitamins hypotonic solution (hypotonic=80% isotonicity). The quantity of vitamins loaded into the cells, was measured by HPLC. The suspension was then centrifuged and the centrifugates was washed twice with 560 g NaCl isotonic solution (0.9%). Step IV)-The centrifugate was air-dried at 45° C. for 36 hours. After mincing the dried pellets were sifted on a 400μ net. Step V)-The incorporated vitamins quantities were determined by HPLC af[…] HCl extraction for one hours at 25° C. under gentle stirring and after NaOH 0.05N extraction (one hours at 25° C. under gentle stirring). In this treatment yeast cells have been partially emptied by the hypertonic solution, comprising NaCl and Trisodium citrate bihydrate, as already described. α-tocopherol (vitamin E) was then incorporated by incubation in a vitamin hypotonic solution (hypotonic=80% isotonicity). The quantity of vitamin loaded into the cells, was measured HPLC. […] An aliquot of the solution (B), was then washed one more time with a NaCl isotonic solution Step IV)-The centrifugate was air-dried at 40° C. for 36 hours. The dried mass of cells was minced and then sifted on a 400μ net. Step V)-The incorporated vitamin quantities were determined by HPLC af[…] HCl extraction for one hour at 25° C. under gentle stirring.

| Molecule | Incorporated vitamins (HCl extraction), Content [3] | Incorporated vitamins (NaOH extraction), Content [3] | other results |
| --- | --- | --- | --- |
| COc1cc([N-]S(=O)(=O)c2ccc(N)cc2)nc(OC)n1.[Na+] [sulphadimetoxin, sodium sulphadimethoxine] |  |  | Sulphadimetoxin final soln. ([1]; Example 3, Test 4NS1): 0.075 mg/mL; Sulphadimetoxin final soln. ([1]; Example 4, Test 6NS1): 0.066 mg/mL |
| O=C1O[C@H]([C@@H](O)CO)C(O)=C1O [Ascorbic acid, ascorbic acid] |  |  | thermostability of ascorbic acid as such [2]: easily denatured at much lower temperatures; Ascorbic acid final soln. ([1]; Example 5, Test 5NC): 0.16 mg/mL |
| CN(C)[C@@H]1C(O)=C(C(N)=O)C(=O)[C@@]2(O)C(O)=C3C(=O)c4c(O)cccc4[C@@](C)(O)[C@H]3[C@H](O)[C@@H]12.Cl [Oxytetracyclin, oxytetracycline HCl] |  |  | Oxytetracyclin final soln. ([1]; Example 2, Test 3NO): 0.249 mg/mL |
| Cc1ncc(C[n+]2csc(CCO)c2C)c(N)n1 [Tiamine, thiamine] | 3.787 0/00 (mg/g) | 3.493 0/00 (mg/g) |  |
| cyanocobalamin | 0.018 0/00 (mg/g) | 0.014 0/00 (mg/g) |  |
| Nc1nc2ncc(CNc3ccc(C(=O)N[C@@H](CCC(=O)O)C(=O)O)cc3)nc2c(=O)[nH]1 [Folic Acid, folic acid] | 0.203 0/00 (mg/g) | 2.663 0/00 (mg/g) |  |
